# Laboratory results from US10696655B2, “Therapeutic compounds and uses thereof” (GENENTECH, INC., priority 2017, dated 2020).
# pIC50: −log10 of the molar value.
# Legend:
# [1] = biological target: CBP (Homo sapiens (Human), UniProt Q92793); assay: CBP TR-FRET binding assay; conditions: His/Flag tagged CBP 4 nM, biotin-ligand 60 nM; read-out: CBP HTRF IC50;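 note: displacement of a biotinylated small-molecule ligand from purified recombinant CBP read by TR-FRET, DMSO-only wells as control, IC50 from nonlinear curve fit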
# Procedure: IC50 Measurements for Inhibitors Using CBP TR FRET Binding Assay
# His/Flag epitope tagged CBP was cloned, expressed, and purified to homogeneity. CBP binding and inhibition was assessed by monitoring the engagement of a biotinylated small molecule compound with the target using the TR-FRET assay technology (Perkin-Elmer). Specifically, in a 384 well ProxiPlate CBP (4 nM final) was combined with biotin-ligand (60 nM final) in 50 mM HEPES (pH 7.5), 50 mM NaCl, 1 mM TCEP, 0.01% (w/v) BSA, and 0.008% (w/v) Brij-35 either in the presence of DMSO (final 0.2% DMSO) or compound dilution series in DMSO. […] After twenty minutes of equilibration, the plates were read on an Envision instrument and IC50S calculated using a four parameter non-linear curve fit.
# [2] = system: MYC; assay: MYC RPL19 QuantiGene assay in MV-4-11 cells; assay type: cell-based; conditions: Homo sapiens, MV4-11, compound 4 hours
# Excerpt: MYC RPL19 QuantiGene assay in MV-4-11 Cells
# Sequence of CBP (Q92793 whole entry): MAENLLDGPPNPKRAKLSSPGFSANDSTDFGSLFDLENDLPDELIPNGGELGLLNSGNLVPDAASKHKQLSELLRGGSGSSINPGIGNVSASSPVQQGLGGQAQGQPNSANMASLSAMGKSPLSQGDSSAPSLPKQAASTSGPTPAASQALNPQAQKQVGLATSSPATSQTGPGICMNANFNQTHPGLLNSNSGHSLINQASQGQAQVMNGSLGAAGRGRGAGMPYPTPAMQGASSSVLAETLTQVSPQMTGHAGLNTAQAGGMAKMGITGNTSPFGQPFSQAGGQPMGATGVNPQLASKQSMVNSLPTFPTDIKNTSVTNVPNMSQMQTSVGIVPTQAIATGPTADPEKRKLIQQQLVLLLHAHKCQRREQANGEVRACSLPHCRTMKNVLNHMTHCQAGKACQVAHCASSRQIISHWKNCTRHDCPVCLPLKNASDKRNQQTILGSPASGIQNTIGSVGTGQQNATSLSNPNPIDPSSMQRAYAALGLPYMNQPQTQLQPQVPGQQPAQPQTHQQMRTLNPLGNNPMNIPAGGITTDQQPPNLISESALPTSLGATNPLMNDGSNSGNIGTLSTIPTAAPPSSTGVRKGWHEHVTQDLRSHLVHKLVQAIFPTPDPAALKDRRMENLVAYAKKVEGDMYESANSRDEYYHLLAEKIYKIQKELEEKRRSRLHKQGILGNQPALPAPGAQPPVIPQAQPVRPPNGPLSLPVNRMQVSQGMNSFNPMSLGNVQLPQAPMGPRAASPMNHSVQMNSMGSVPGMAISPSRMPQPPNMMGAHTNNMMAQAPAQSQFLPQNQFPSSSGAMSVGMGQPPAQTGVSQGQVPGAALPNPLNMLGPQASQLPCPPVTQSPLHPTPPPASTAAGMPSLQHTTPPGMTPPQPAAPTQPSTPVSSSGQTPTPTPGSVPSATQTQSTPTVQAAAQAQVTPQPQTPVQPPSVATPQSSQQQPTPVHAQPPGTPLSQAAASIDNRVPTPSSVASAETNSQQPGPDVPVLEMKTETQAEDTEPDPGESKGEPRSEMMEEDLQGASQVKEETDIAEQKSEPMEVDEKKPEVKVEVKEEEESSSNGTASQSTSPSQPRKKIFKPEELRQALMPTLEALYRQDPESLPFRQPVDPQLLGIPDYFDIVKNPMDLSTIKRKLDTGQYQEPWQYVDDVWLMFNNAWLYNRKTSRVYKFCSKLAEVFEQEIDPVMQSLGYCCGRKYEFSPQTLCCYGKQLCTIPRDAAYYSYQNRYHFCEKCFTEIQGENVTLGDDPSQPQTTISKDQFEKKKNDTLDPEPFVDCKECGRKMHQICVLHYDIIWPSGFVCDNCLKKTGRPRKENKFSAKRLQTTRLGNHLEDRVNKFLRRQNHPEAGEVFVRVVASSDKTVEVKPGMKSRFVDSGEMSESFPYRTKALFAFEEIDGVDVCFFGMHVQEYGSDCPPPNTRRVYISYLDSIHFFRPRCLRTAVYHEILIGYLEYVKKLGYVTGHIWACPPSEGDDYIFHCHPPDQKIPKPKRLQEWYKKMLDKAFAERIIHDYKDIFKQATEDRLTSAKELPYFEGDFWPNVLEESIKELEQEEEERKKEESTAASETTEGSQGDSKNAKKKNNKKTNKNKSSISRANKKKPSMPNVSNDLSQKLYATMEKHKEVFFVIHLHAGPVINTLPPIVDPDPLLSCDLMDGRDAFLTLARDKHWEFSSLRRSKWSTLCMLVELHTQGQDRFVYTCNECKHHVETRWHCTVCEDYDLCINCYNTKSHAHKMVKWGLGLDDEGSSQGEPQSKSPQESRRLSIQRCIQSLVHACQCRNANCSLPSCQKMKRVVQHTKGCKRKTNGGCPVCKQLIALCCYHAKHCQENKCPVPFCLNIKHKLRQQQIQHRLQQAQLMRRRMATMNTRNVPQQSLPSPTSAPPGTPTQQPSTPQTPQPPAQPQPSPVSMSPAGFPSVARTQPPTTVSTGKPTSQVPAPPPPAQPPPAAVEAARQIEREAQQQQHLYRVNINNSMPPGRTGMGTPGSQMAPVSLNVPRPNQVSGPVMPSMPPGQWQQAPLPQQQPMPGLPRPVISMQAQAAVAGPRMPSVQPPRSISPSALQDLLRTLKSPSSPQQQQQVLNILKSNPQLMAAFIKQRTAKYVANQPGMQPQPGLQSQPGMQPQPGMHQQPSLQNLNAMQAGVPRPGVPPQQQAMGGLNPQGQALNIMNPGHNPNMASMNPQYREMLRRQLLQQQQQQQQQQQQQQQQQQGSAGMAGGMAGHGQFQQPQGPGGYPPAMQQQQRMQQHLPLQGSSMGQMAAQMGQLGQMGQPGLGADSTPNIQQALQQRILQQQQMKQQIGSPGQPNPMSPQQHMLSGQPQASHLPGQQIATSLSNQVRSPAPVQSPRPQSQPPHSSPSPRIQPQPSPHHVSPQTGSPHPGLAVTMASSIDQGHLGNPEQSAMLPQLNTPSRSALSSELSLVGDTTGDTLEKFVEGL
SMILES,pIC50 [1],pIC50 [2]
"CNC(=O)N1CCNc2ccc(N3CCCc4cc(-c5cnn(C)c5)c(C(F)F)cc43)cc2C1 [Example 16, 7-[7-(difluoromethyl)-6-(1-methylpyrazol-4-yl)-3,4-dihydro-2H-quinolin-1-yl]-N-methyl-1,2,3,5-tetrahydro-1,4-benzodiazepine-4-carboxamide]",8.10,6.76
Cn1cc(-c2cc3c(cc2C(F)F)N(c2cc(C4CCC4)c4c(c2)n(C)c(=O)n4C)CCC3)cn1 [Example 39],7.92,6.68
CNC(=O)c1c[nH]c2ccc(N3CCCc4cc(-c5cnn(C)c5)c(C(F)F)cc43)nc12 [Example 65],8.30,6.82
Cn1cc(-c2cc3c(cc2C(F)F)N(c2cc(N4CCCC4)c4c(c2)n(C)c(=O)n4C)CCC3)cn1 [Example 43],8.22,6.94
CNC(=O)c1c[nH]c2ncc(N3CCCc4cc(-c5cnn(C)c5)c(C(F)F)cc43)cc12 [Example 68],7.82,5.36
"Cn1cc(-c2cc3c(cc2C(F)F)N(c2cc(Cl)c4c(c2)n(C)c(=O)n4C)CCC3)cn1 [Example 33, 4-chloro-6-(7-(difluoromethyl)-6-(1-methyl-1H-pyrazol-4-yl)-3,4-dihydroquinolin-1(2H)-yl)-1,3-dimethyl-1H-benzo[d]imidazol-2(3H)-one]",7.38,5.93
"CNC(=O)c1c[nH]c2c(C)nc(N3CCCc4cc(-c5cnn(C)c5)c(C(F)F)cc43)cc12 [Example 64, 5-(7-(difluoromethyl)-6-(1-methyl-1H-pyrazol-4-yl)-3,4-dihydroquinolin-1(2H)-yl)-N,7-dimethyl-1H-pyrrolo[2,3-c]pyridine-3-carboxamide]",8.70,6.84
"CNC(=O)c1ccc2cccc(N3CCCc4cc(-c5cnn(C)c5)c(C(F)F)cc43)c2n1 [Example 120, 7-(difluoromethyl)-N-methyl-6-(1-methyl-1H-pyrazol-4-yl)-3,4-dihydro-2H-[1,8′-biquinoline]-2′-carboxamide]",8.22,6.20
Cn1cc(-c2cc3c(cc2C(F)F)N(c2cc(N4CCOCC4)c4c(c2)n(C)c(=O)n4C)CCC3)cn1 [Example 45],8.40,7.96
CC(=O)N1CCc2c(cc(N3CCCc4cc(-c5cnn(C)c5)c(C(F)F)cc43)c(=O)n2C)C1 [Example 17],7.33,5.58
CNC(=O)c1c[nH]c2cnc(N3CCCc4cc(-c5cnn(C)c5)c(C(F)F)cc43)cc12 [Example 67],8.30,6.45
"CNC(=O)c1cn(C)c2ccc(N3CCCc4cc(-c5cnn(C)c5)c(C(F)F)cc43)cc12 [Example 50, 5-(7-(difluoromethyl)-6-(1-methyl-1H-pyrazol-4-yl)-3,4-dihydroquinolin-1(2H)-yl)-N,1-dimethyl-1H-indole-3-carboxamide]",8.05,6.30
"CNC(=O)c1cn(C)c2c(C(C)C)cc(N3CCCc4cc(-c5cnn(C)c5)c(C(F)F)cc43)cc12 [Example 108, 5-(7-(difluoromethyl)-6-(1-methyl-1H-pyrazol-4-yl)-3,4-dihydroquinolin-1(2H)-yl)-7-isopropyl-N,1-dimethyl-1H-indole-3-carboxamide]",7.51,6.63
"CC(=O)N1CCOc2ccc(N3CCCc4cc(-c5cnn(C)c5)c(C(F)F)cc43)cc2C1 [Example 112, 1-(7-(7-(difluoromethyl)-6-(1-methyl-1H-pyrazol-4-yl)-3,4-dihydroquinolin-1(2H)-yl)-2,3-dihydrobenzo[f][1,4]oxazepin-4(5H)-yl)ethanone]",7.49,5.68
Cn1cc(-c2cc3c(cc2C(F)F)N(c2ccc4c(c2F)n(C)c(=O)n4C)CCC3)cn1 [Example 34],< 5.31,< 5.00
CNC(=O)c1cn(C)c2ccc(N3CCCc4cc(-c5cnn(C)c5)c(C(F)F)cc43)c(F)c12 [Example 55],8.40,6.94
CNC(=O)c1cn(C)c2ccc(N3CCCc4cc(-c5cnn(C)c5)c(C(F)F)cc43)nc12 [Example 58],8.05,6.74
